We go through 4 substances from patent US11254706B2, “Peptide and its derivatives capable of inhibiting replication of hepatitis V virus in human adipose-derived stem cells and hepatocytes” (Inno Bio-Drug Development Limited, priority 2015, dated 2022).

The test system of series [1] is serum-borne HCV (genotype 1b). Nature of the series: Replication of serum-borne HCV in hADSC (qRT-PCR of 5′-UTR). It counts as cell-based. As to conditions: p5 hADSC, peptide 1, 10 and 100 μg/ml (control peptide 100 μg/ml) added 1 h before HCV(+) serum genotype 1b, day 21 post-infection; for viral (5′-UTR) copy numbers in the supernatant: FIG. 1A; for viral (5′-UTR) copy numbers in cell lysates: FIG. 1B. The text has this:
FIG. 1. […] Data are expressed as mean±SD from 3 experiments. […] Data are expressed as mean±SD from 3 experiments.
We next examined the effect of a peptide composed of 14 amino acids DEAQETAVSSHEQD (SEQ ID NO: 1) (designated as DEA), and its derivatives QETAVSSHEQD (SEQ ID NO: 3) (designated as QET) and DEAQETAVSSHEQ (SEQ ID NO: 2) (designated DEA-Q) as prepared in Example 1, in the replication of serum-borne HCV in hADSC and in human primary hepatocytes. […] (SEQ ID NO: 4)^10. […] In contrast, pretreatment with control peptide had no effects.

A further series has as its system HCVser (genotype 1b). As to conditions: for HCV copy numbers: at some concentrations (such as 10 and 100 μg/ml); for HCVser replication in human hepatocytes (cellular 5′-UTR RNA): pretreatment 1 h before HCVser-1b, five days post-infection, FIG. 1C. As for the experimental part: FIG. 1. […] (A and B) Concentrations of 1, 10 and 100 μg/ml of DEA, DEA-Q and QET peptides were added into the culture of p5 hADSC for 1 h before exposure to HCV(+) serum (genotype 1b). HLA-A11 restricted, Epstein-Barr virus-specific peptide epitope […] was used as a control (irrelevant) peptide. On day 21 post-infection, the 5′-UTR copy numbers in the supernatant (A) and cell lysates (B) were quantified by qRT-PCR. Data are expressed as mean±SD from 3 experiments. (C) Concentrations of 1, 10 and 100 μg/ml of DEA, DEA-Q and QET peptides were added into the culture of primary human hepatocytes 1 h before exposure to HCVser (genotype 1b). Five days post-infection, the cellular RNAs were extracted for RT-PCR of 5′-UTR. Data are expressed as mean±SD from 3 experiments.
Human hepatocytes were isolated from the non-tumoural part away from the lesion, as described^11. Hepatocytes were left for 3 days to allow attachment onto plastic wells, and subsequently exposed to the HCVser-1b with or without pretreatment with control peptide, DEA, DEA-Q or QET peptide. Five days post-infection, the cellular RNAs were extracted for RT-PCR of 5′-UTR.

Ends that are not written are not given here.

As for DEAQETAVSSHEQD-OH [DEA, DEAQETAVSSHEQD], in series [1], the “viral (5′-UTR) copy numbers in the supernatant” value (from here on “viral … in the supernatant”) is listed as “significantly reduced” and the “viral (5′-UTR) copy numbers in cell lysates” value (from here on “viral … in cell lysates”) was “significantly reduced”. In the series on HCVser (genotype 1b), the HCV copy numbers entry is “under detection limit” and the “HCVser replication in human hepatocytes (cellular 5′-UTR RNA)” value (shortened to “HCVser replication in human hepatocytes”) is “significantly inhibited”.
With DEAQETAVSSHEQ-OH [DEA-Q, DEAQETAVSSHEQ], in series [1], the “viral … in the supernatant” value is recorded as “significantly reduced” and the “viral … in cell lysates” value is listed as “significantly reduced”. For the same substance, in the series with HCVser (genotype 1b), the HCV copy numbers result is “under detection limit” and the “HCVser replication in human hepatocytes” value is recorded as “significantly inhibited”.
In the case of “CSSCSSCPLSK (HLA-A11 restricted, Epstein-Barr virus-specific peptide epitope) [control peptide, reference compound]”, in series [1], the “viral … in the supernatant” value is reported as “no effects” and the “viral … in cell lysates” value is listed as “no effects”.
For QETAVSSHEQD-OH [QET, QETAVSSHEQD], in series [1], the “viral … in the supernatant” value is reported as “significantly reduced” and the “viral … in cell lysates” value is “significantly reduced”. Moreover, in the series on HCVser (genotype 1b), the HCV copy numbers entry was “under detection limit” and the “HCVser replication in human hepatocytes” value is reported as “significantly inhibited”.
